Experimental data published in ChEMBL document CHEMBL4346749, “Design, synthesis and evaluation of novel, potent DNA alkylating agents and their antibody-drug conjugates (ADCs)” (Bioorg Med Chem Lett, 2019).

Key:
Type in all cases: functional, cell-based
[1] = tested on: NAMALVA; assay: Cytotoxicity against human NAMALWA cells assessed as reduction in cell viability after 5 days by WST-8 assay; settings: 120 h
[2] = Cytotoxicity against human NCI-H2110 cells assessed as reduction in cell viability after 5 days by WST-8 assay; settings: NCI-H2110, 120 h
[3] = tested on: KB; assay: Cytotoxicity against human KB cells assessed as reduction in cell viability after 5 days by WST-8 assay; settings: 120 h

| SMILES | IC50 [1] | IC50 [2] | IC50 [3] |
| --- | --- | --- | --- |
| COC(=O)c1cc2cc(NC(=O)c3cc(NC(=O)CCCOc4cc5c(cc4OC)C(=O)N4c6ccccc6C[C@H]4C=N5)cn3C)ccc2s1 | 0.02 nM | 0.05 nM | 0.01 nM |
| COc1cc2c(cc1OCCCC(=O)Nc1cc(C(=O)Nc3ccc(-c4cc(C(=O)NCC(C)(C)SSC)n(C)c4)cc3)n(C)c1)N=C[C@@H]1Cc3ccccc3N1C2=O | 0.03 nM | 0.1 nM | 0.01 nM |
| COc1cc2c(cc1OCCCC(=O)Nc1cc(C(=O)Nc3ccc4sc(C(=O)NCC(C)(C)SSC)cc4c3)n(C)c1)N=C[C@@H]1Cc3ccccc3CN1C2=O | 0.002 nM | 0.03 nM | 0.005 nM |
| COC(=O)CCNC(=O)c1cc2cc(NC(=O)c3nc(NC(=O)CCCOc4cc5c(cc4OC)C(=O)N4c6ccccc6C[C@H]4C=N5)cn3C)ccc2s1 | 0.01 nM | – | – |
| COc1cc2c(cc1OCCCC(=O)Nc1nc(C(=O)Nc3ccc(NC(=O)CCC(C)(C)SSC)cc3)cs1)N=C[C@@H]1Cc3ccccc3N1C2=O | 0.03 nM | 0.6 nM | 0.1 nM |
| COc1cc2c(cc1OCCCC(=O)Nc1cn(C)c(C(=O)Nc3ccc(N)cc3)n1)N=C[C@@H]1Cc3ccccc3N1C2=O | 0.06 nM | 0.4 nM | 0.2 nM |
| COc1cc2c(cc1OCCCC(=O)Nc1cn(C)c(C(=O)Nc3ccc4sc(C(=O)NCC(C)(C)SSC)cc4c3)n1)N=C[C@@H]1Cc3ccccc3N1C2=O | 0.03 nM | – | – |
| COC(=O)CCNC(=O)c1cc2cc(NC(=O)c3cc(NC(=O)CCCOc4cc5c(cc4OC)C(=O)N4c6ccccc6C[C@H]4C=N5)cn3C)ccc2o1 | 0.06 nM | 0.5 nM | 0.2 nM |
| COc1cc2c(cc1OCCCC(=O)Nc1cn(C)c(C(=O)Nc3ccc4sccc4c3)n1)N=C[C@@H]1Cc3ccccc3N1C2=O | 0.02 nM | 0.08 nM | 0.04 nM |
| COc1cc2c(cc1OCCCC(=O)Nc1cc(C(=O)Nc3ccc4sc(C(=O)NCC(C)(C)SSC)cc4c3)n(C)c1)N=C[C@@H]1Cc3ccccc3N1C2=O | 0.01 nM | 0.3 nM | 0.08 nM |
| COc1cc2c(cc1OCCCC(=O)Nc1cn(C)c(C(=O)Nc3ccc(-c4cc(C(=O)NCC(C)(C)SSC)n(C)c4)cc3)n1)N=C[C@@H]1Cc3ccccc3CN1C2=O | 0.001 nM | 0.01 nM | 0.006 nM |
| COc1cc2c(cc1OCCCC(=O)Nc1cn(C)c(C(=O)Nc3ccc(-c4cc(C(=O)NCC(C)(C)SSC)n(C)c4)cc3)n1)N=C[C@@H]1Cc3ccccc3N1C2=O | 0.01 nM | 0.06 nM | 0.04 nM |
| COC(=O)CCNC(=O)c1cc2cc(NC(=O)c3cc(NC(=O)CCCOc4cc5c(cc4OC)C(=O)N4c6ccccc6C[C@H]4C=N5)cn3C)ccc2s1 | 0.03 nM | 0.2 nM | 0.04 nM |
| COc1cc2c(cc1OCCCC(=O)Nc1cn(C)c(C(=O)Nc3ccc(NC(=O)CCC(C)(C)SSC)cc3)n1)N=C[C@@H]1Cc3ccccc3N1C2=O | 0.03 nM | 0.4 nM | 0.03 nM |
| COC(=O)CCNC(=O)c1cc2cc(NC(=O)c3nc(NC(=O)CCCOc4cc5c(cc4OC)C(=O)N4c6ccccc6C[C@H]4C=N5)cn3C)ccc2o1 | 0.06 nM | 0.5 nM | 0.08 nM |
